From patent US20240116985A1, “STAPLED PEPTIDES AND METHODS THEREOF” (priority 2020, published 2024)
≈ marks a conversion by molar mass, not a printed value. Like-named read-outs stand apart in the source and are kept apart here. Starred links: 1 amine or outer side, 2 acyl side, 3 side chain; linkers in the order of their positions; H or OH if unused. Non-standard residues stand in square brackets, D forms with d. Residues, ends and D or L forms follow the SMILES beside them. X2 = C=CCCCC(CCCC=C)(N[*:1])C(=O)[*:2]; Bta = N[C@@H](Cc1csc2ccccc12)C(=O)O; αAllylPro = C=CC[C@@]1(C(=O)O)CCCN1; S8 = C=CCCCCCC[C@](C)(N)C(=O)O

Columns and labels:
[1] = biological target: T1, full-length beta-Catenin (Uniprot ID P35222) (Homo sapiens, UniProt P35222); experiment: Fluorescence polarization IC50 (beta-catenin / 5FAM-TCF4 10-53 competition); format: binding
T1 construct: 10 nM full-length beta-Catenin (Uniprot ID P35222)
T1 sequence (P35222 1-781): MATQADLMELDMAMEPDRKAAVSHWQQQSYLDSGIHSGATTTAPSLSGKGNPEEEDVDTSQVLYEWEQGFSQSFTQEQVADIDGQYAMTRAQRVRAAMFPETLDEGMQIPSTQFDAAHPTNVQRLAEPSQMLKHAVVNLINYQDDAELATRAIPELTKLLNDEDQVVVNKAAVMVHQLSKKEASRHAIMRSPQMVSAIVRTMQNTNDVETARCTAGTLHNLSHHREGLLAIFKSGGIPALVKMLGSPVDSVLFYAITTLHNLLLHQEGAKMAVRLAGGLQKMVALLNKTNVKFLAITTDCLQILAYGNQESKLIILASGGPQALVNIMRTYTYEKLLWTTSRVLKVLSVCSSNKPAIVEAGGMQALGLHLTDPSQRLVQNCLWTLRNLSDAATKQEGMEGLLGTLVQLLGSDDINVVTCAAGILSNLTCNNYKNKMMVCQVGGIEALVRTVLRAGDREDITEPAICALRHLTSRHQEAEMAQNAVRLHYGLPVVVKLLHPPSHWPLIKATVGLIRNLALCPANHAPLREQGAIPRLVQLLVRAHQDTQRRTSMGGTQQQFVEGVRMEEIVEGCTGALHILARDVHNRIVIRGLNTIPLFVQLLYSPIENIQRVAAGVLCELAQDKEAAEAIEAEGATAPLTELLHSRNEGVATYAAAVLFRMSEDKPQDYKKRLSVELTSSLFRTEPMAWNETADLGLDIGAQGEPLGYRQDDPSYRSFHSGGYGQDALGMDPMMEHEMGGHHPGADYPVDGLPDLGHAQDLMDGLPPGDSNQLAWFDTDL

[2] = CHI Log D procedure; format: physicochemical; settings: for CHI Log D: pH 7.4; for chromatographic logD / logD: pH 7.4, CHI Log D
[3] = Solubility in PBS; format: physicochemical
Method in brief: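 Read-out is the HPLC peak area of the supernatant from ultracentrifuged PBS solution, scaled against a 50 μM peptide DMSO injection; value reported as [(PBS area)/(DMSO area)]*50 uM.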

[4] = fluorescence polarization, read-out: beta-Catenin FP IC50

Structure (SMILES) | IC50 [1, 4] | IC50 ([1]; read-out: FP EC50) | CHI Log D [2] | Solubility [3] | IC50 ([1]; fluorescence polarization, beta-catenin, read-out: FP EC50) | IC50 ([1]; read-out: beta-Catenin FP IC50) | chromatographic logD [2] | logD [2] | Solubility ([3]; Solubility (uM))
CC(=O)N1CCC[C@]12CC=CCCCC1(CCCC=CCCCCCC[C@@](C)(C(=O)N[C@@H](Cc3ccccc3)C(=O)N[C@@H](Cc3csc4ccccc34)C(=O)N[C@@H](Cc3cn(C)cn3)C(N)=O)NC(=O)[C@H](CC(N)=O)NC(=O)[C@H](Cc3ccccc3)NC(=O)[C@H](C)NC(=O)[C@H](C)NC(=O)[C@H](CCC(=O)O)NC(=O)[C@H](CC(=O)O)NC1=O)NC(=O)[C@H](C)NC(=O)[C@H](CC(=O)O)NC2=O (stereo partly drawn) [I-478, Ac-PL3-Asp-Ala-B5-Asp-Glu-Ala-Ala-Phe-Asn-S8-Phe-BztA-1MeH-NH2] | 71 nM | 71 nM | 2.052 | 42 µM (≈ 77.7 µg/mL) | – | – | – | – | –
CC[C@H](C)[C@@H]1NC(=O)[C@H](CC(=O)O)NC(=O)[C@]2(CC=CCCCC3(CCCC=CCCCCCC[C@@](C)(C(=O)N[C@@H](Cc4ccccc4)C(=O)N[C@@H](Cc4csc5ccccc45)C(=O)N[C@@H](CCC(N)=O)C(N)=O)NC(=O)[C@H](CCC(N)=O)NC(=O)[C@H](Cc4ccccc4)NC(=O)[C@H](C)NC(=O)[C@H](Cc4ccccc4)NC(=O)[C@H](CCC(=O)O)NC(=O)[C@H](CC(=O)O)NC3=O)NC1=O)CCCN2C(C)=O (stereo partly drawn) [I-650, Ac-PL3-Asp-Ile-B5-Asp-Glu-Phe-Ala-Phe-Gln-S8-Phe-BztA-Gln-NH2] | 137 nM | 137 nM | 2.718 | 45 µM (≈ 88.2 µg/mL) | – | – | – | – | –
CC(=O)N1CCC[C@]12CC=CCCCC1(CCCC=CCCCOC(=O)N3CC[C@@](C(=O)N[C@@H](Cc4ccccc4Cl)C(=O)N[C@@H](Cc4csc5ccccc45)C(=O)N[C@H](C(N)=O)[C@@H](C)O)(C3)NC(=O)[C@H](CC(C)C)NC(=O)[C@H](Cc3ccccc3)NC(=O)[C@H](C)NC(=O)[C@H](C)NC(=O)[C@H](CC(=O)O)NC(=O)[C@H](CC(=O)O)NC1=O)NC(=O)[C@H](CC(C)(C)C)NC(=O)[C@H](CC(=O)O)NC2=O (stereo partly drawn) [I-1068, Ac-PL3-Asp-Npg-B5-Asp-Asp-Ala-Ala-Phe-Leu-PyrS2-2C1F-BztA-Thr-NH2] | – | – | 2.053 | 13 µM (≈ 24.9 µg/mL) | 950 nM | 950 nM | – | – | –
CC(=O)N1CCC[C@]12CC=CCCCC1(CCCC=CCCCCCC[C@@](C)(C(=O)N[C@@H](Cc3ccccc3)C(=O)N[C@@H](Cc3csc4ccccc34)C(=O)N[C@@H](CCC(N)=O)C(N)=O)NC(=O)[C@H](CC(N)=O)NC(=O)[C@H](Cc3ccccc3)NC(=O)[C@H](C)NC(=O)[C@H](C)NC(=O)[C@H](CCC(=O)O)NC(=O)[C@H](CC(=O)O)NC1=O)NC(=O)[C@H](C)NC(=O)[C@H](CC(=O)O)NC2=O (stereo partly drawn) [I-425, Ac-PL3-Asp-Ala-B5-Asp-Glu-Ala-Ala-Phe-Asn-S8-Phe-BztA-Gln-NH2] | 50 nM | 50 nM | 2.01 | 45 µM (≈ 82.2 µg/mL) | – | – | – | – | –
CC[C@H](C)[C@@H]1NC(=O)[C@H](CC(=O)O)NC(=O)[C@]2(CC=CCCCC3(CCCC=CCCCCCC[C@@](C)(C(=O)N[C@@H](Cc4ccccc4)C(=O)N[C@@H](Cc4csc5ccccc45)C(N)=O)NC(=O)[C@H](CC(N)=O)NC(=O)[C@H](Cc4ccccc4)NC(=O)[C@H](C)NC(=O)[C@H](C)NC(=O)[C@H](CCC(=O)O)NC(=O)[C@H](CC(=O)O)NC3=O)NC1=O)CCCN2C(C)=O (stereo partly drawn) [I-715, Ac-PL3-Asp-Ile-B5-Asp-Glu-Ala-Ala-Phe-Asn-S8-Phe-BztA-NH2] | 60.5 nM | 60.5 nM | 2.762 | 25 µM (≈ 43.5 µg/mL) | – | – | – | – | –
CC[C@H](C)[C@@H]1NC(=O)[C@H](CC(=O)O)NC(=O)[C@]2(CC=CCCCC3(CCCC=CCCCCCC[C@@](C)(C(=O)N[C@@H](Cc4ccccc4)C(=O)N[C@@H](Cc4csc5ccccc45)C(=O)N[C@@H](Cc4ccc(O)cc4)C(N)=O)NC(=O)[C@H](CCC(N)=O)NC(=O)[C@H](Cc4ccccc4)NC(=O)[C@H](C)NC(=O)[C@H](C)NC(=O)[C@H](CCC(=O)O)NC(=O)[C@H](CC(=O)O)NC3=O)NC1=O)CCCN2C(C)=O (stereo partly drawn) [I-636, Ac-PL3-Asp-Ile-B5-Asp-Glu-Ala-Ala-Phe-Gln-S8-Phe-BztA-Tyr-NH2] | 198 nM | – | – | 50 µM (≈ 95.9 µg/mL) | – | – | 2.57 | – | –
CC(=O)N1CCC[C@]12CC=CCCCC1(CCCC=CCCCCCC[C@@](C)(C(=O)N[C@@H](Cc3ccccc3)C(=O)N[C@@H](Cc3csc4ccccc34)C(=O)N[C@@H](CCC(N)=O)C(N)=O)NC(=O)[C@H](CCC(N)=O)NC(=O)[C@H](Cc3cccs3)NC(=O)[C@H](C)NC(=O)[C@H](C)NC(=O)[C@H](CCC(=O)O)NC(=O)[C@H](CC(=O)O)NC1=O)NC(=O)[C@H](C)NC(=O)[C@H](CC(=O)O)NC2=O (stereo partly drawn) [I-487, Ac-PL3-Asp-Ala-B5-Asp-Glu-Ala-Ala-2Thi-Gln-S8-Phe-BztA-Gln-NH2] | 45 nM | 45 nM | 1.99 | 44 µM (≈ 81.3 µg/mL) | – | – | – | – | –
CC[C@@H]1NC(=O)[C@H](CC(=O)O)NC(=O)[C@]2(CC=CCCCC3(CCCC=CCCCCCC[C@@](C)(C(=O)N[C@@H](Cc4ccccc4)C(=O)N[C@@H](Cc4csc5ccccc45)C(=O)N[C@@H](CCC(N)=O)C(N)=O)NC(=O)[C@H](CCC(N)=O)NC(=O)[C@H](Cc4ccccc4)NC(=O)[C@H](C)NC(=O)[C@H](C)NC(=O)[C@H](CCC(=O)O)NC(=O)[C@H](CC(=O)O)NC3=O)NC1=O)CCCN2C(C)=O (stereo partly drawn) [I-569, Ac-PL3-Asp-Abu-B5-Asp-Glu-Ala-Ala-Phe-Gln-S8-Phe-BztA-Gln-NH2] | 42 nM | 42 nM | 2.169 | 49 µM (≈ 90.9 µg/mL) | – | – | – | – | –
C=CC(=O)NC[C@H](NC(=O)[C@]1(C)CCCCCCC=CCCCC2(CCCC=CC[C@]3(CCCN3C(C)=O)C(=O)N[C@@H](CC(=O)O)C(=O)N[C@@H]([C@@H](C)CC)C(=O)N2)C(=O)N[C@@H](CC(=O)O)C(=O)N[C@@H](CC(=O)O)C(=O)N[C@@H](C)C(=O)N[C@@H](C)C(=O)N[C@@H](Cc2ccccc2)C(=O)N[C@@H](CCC(N)=O)C(=O)N1)C(=O)N[C@@H](Cc1csc2ccccc12)C(=O)N[C@@H](CCC(N)=O)C(N)=O (stereo partly drawn) [I-484, Ac-PL3-Asp-Ile-B5-Asp-Asp-Ala-Ala-Phe-Gln-S8-[Acryl]Dap-BztA-Gln-NH2] | – | – | 1.863 | 45 µM (≈ 83.8 µg/mL) | – | – | – | – | –
CC(=O)N1CCC[C@]12CC=CCCCC1(CCCC=CCCCOC(=O)N3CC[C@@](C(=O)N[C@@H](Cc4ccsc4)C(=O)N[C@@H](Cc4csc5ccccc45)C(=O)N[C@@H](CCC(N)=O)C(=O)N[C@@H](C)C(=O)N[C@@H](C)C(=O)N[C@H](C)C(N)=O)(C3)NC(=O)[C@H](CC(N)=O)NC(=O)[C@H](Cc3ccccc3)NC(=O)[C@H](C)NC(=O)[C@H](C)NC(=O)[C@H](CC(=O)O)NC(=O)[C@H](CC(=O)O)NC1=O)NC(=O)[C@H](CC(C)(C)C)NC(=O)[C@H](CC(=O)O)NC2=O (stereo partly drawn) [I-873, Ac-PL3-Asp-Npg-B5-Asp-Asp-Ala-Ala-Phe-Asn-PyrS2-3Thi-BztA-Gln-Ala-Ala] | – | – | – | – | – | – | – | 2 | 47 µM (≈ 100 µg/mL)
CC(=O)N1CCC[C@]12CC=CCCCC1(CCCC=CCCCOC(=O)N3CC[C@@](C(=O)N[C@@H](Cc4ccsc4)C(=O)N[C@@H](Cc4csc5ccccc45)C(=O)N[C@@H](CCC(N)=O)C(=O)N[C@H](C)C(=O)N[C@H](C)C(=O)N[C@H](C)C(N)=O)(C3)NC(=O)[C@H](CC(N)=O)NC(=O)[C@H](Cc3ccccc3)NC(=O)[C@H](C)NC(=O)[C@H](C)NC(=O)[C@H](CC(=O)O)NC(=O)[C@H](CC(=O)O)NC1=O)NC(=O)[C@H](CC(C)(C)C)NC(=O)[C@H](CC(=O)O)NC2=O (stereo partly drawn) [I-872, Ac-PL3-Asp-Npg-B5-Asp-Asp-Ala-Ala-Phe-Asn-PyrS2-3Thi-BztA-Gln-dAla-dAla] | – | – | – | 50 µM (≈ 107 µg/mL) | – | – | – | 1.89 | –
CC(=O)N1CCC[C@]12CC=CCCCC1(CCCC=CCCCCCC[C@@](C)(C(=O)N[C@@H](Cc3cccc4ccccc34)C(=O)N[C@@H](Cc3c[nH]c4ccccc34)C(=O)N[C@@H](CCC(N)=O)C(N)=O)NC(=O)[C@H](C(C)C)NC(=O)[C@H](Cc3ccccc3)NC(=O)[C@H](C)NC(=O)[C@H](C)NC(=O)[C@H](CC(=O)O)NC(=O)[C@H](CC(=O)O)NC1=O)NC(=O)[C@H](C)NC(=O)[C@H](CC(=O)O)NC2=O (stereo partly drawn) [I-275, Ac-PL3-Asp-Ala-B5-Asp-Asp-Ala-Ala-Phe-Val-S8-1NapA-Trp-Gln-NH2] | – | – | 2.191 | 44 µM (≈ 80.6 µg/mL) | – | – | – | – | –
C=CCCCCCC[C@](C)(NC(=O)[C@H](CCC(N)=O)NC(=O)[C@H](Cc1ccccc1)NC(=O)[C@H](C)NC(=O)[C@H](C)NC(=O)[C@H](CC(=O)O)NC(=O)[C@H](CC(=O)O)NC(=O)C(CCCC=C)(CCCC=C)NC(=O)[C@H](C)NC(=O)[C@H](CC(=O)O)NC(=O)[C@]1(CC=C)CCCN1C(C)=O)C(=O)N[C@@H](Cc1ccccc1)C(=O)N[C@@H](Cc1csc2ccccc12)C(=O)N[C@@H](CCC(N)=O)C(N)=O [I-578, Ac-PL3-Asp-Ala-B5-Asp-Asp-Ala-Ala-Phe-Gln-S8-Phe-BztA-Gln-NH2] (Ac-[αAllylPro]DA[X2]DDAAFQ[S8]F[Bta]Q-NH2) | – | – | – | 50 µM (≈ 94.2 µg/mL) | – | – | 2.26 | – | –
